The assay deals with wt-PhaCCs (Chromobacterium sp. USM2, UniProt E1APK1). In words: continuous DTNB assay of CoA release, […] nm. The format is biochemical. The settings on record: KPi 100 mM pH 7.8, 30 °C, BSA 0.2 mg/mL, DTNB 0.3 mM, Triton X-100 50 mg/L.

As to `C[C@@H](O)CC(=O)SCCNC(=O)CCNC(=O)[C@H](O)C(C)(C)COP(=O)(O)OP(=O)(O)OC[C@H]1O[C@@H](n2cnc3c(N)ncnc32)[C@H](O)[C@@H]1OP(=O)(O)O` [1a, HBCoA], the “continuous DTNB assay of CoA release, 412 nm” value is reported as “addition of BSA would increase SA of PhaCCs with HBCoA”.

Source of the values: publication PMC4862738 (Biomacromolecules, 2016).
